Measurements published in publication PMC6792352, “Limited Chemical Structural Diversity Found to Modulate Thyroid Hormone Receptor in the Tox21 Chemical Library” (Environmental Health Perspectives, 2019).
Counter-ions that a name gives are not always drawn.

Assay: in vitro
Conditions: rat, gh3-tre-luc cells, AC50 (uM) modified / 1000
With CCCCOC(=O)C(C)O (stereo not drawn) [Butyl lactate] the CC50 at 24 h was > 90 µM.
For Nc1ncnc(Nc2ccccc2)n1 [Amanozine], the CC50 at 24 h was > 50 µM.
For c1ccc(-n2cnnn2)cc1 [1-Phenyl-1H-tetrazole], the CC50 at 24 h was > 50 µM.
In the case of c1ccc2c(c1)CCNC2 [1,2,3,4-Tetrahydroisoquinoline], the CC50 at 24 h is reported as > 90 µM.
In the case of C=CC(=O)Nc1cc2c(Nc3ccc(F)c(Cl)c3)ncnc2cc1OCCCN1CCOCC1 [Canertinib], the CC50 at 24 h is reported as 4.7 µM.
With CCCOC(=O)c1ccccc1C(=O)OCCC [Dipropyl phthalate] the CC50 at 24 h was > 90 µM.
For C[C@](N)(Cc1ccc(O)cc1)C(=O)O [Metyrosine], the CC50 at 24 h was > 50 µM.
Work on COc1cc(C(C)=O)ccc1OCCCN1CCC(c2noc3cc(F)ccc23)CC1 [Iloperidone] yielded a CC50 at 24 h of 15.2 µM.
In the case of Nc1ccc(S(=O)(=O)Nc2ccccc2)cc1 [Sulfabenz], the CC50 at 24 h is reported as > 50 µM.
Work on O=C1NCN(c2ccccc2)C12CCN(CCCOc1ccc(F)cc1)CC2 [AMI-193] yielded a CC50 at 24 h of 14.1 µM.
Work on O=C(O)c1cc(O)c2ccccc2c1O [1,4-Dihydroxy-2-naphthoic acid] yielded a CC50 at 24 h of 12.2 µM.
In the case of Nc1cc(C(=O)O)c(O)c(S(=O)(=O)O)c1 [5-Amino-3-sulfosalicylic acid], the CC50 at 24 h is reported as > 90 µM.
In the case of CCCC(C)C(O)CC (stereo not drawn) [4-Methyl-3-heptanol], the CC50 at 24 h is reported as > 90 µM.
With CC1=NN(c2ccc(S(=O)(=O)O)cc2)C(=O)C1 [4-(3-Methyl-5-oxo-4,5-dihydro-1H-pyrazol-1-yl)benzenesulfonic acid] the CC50 at 24 h was > 90 µM.
For CCCCCCCCN [1-Octanamine], the CC50 at 24 h was > 90 µM.
With CCCCC(CC)COC(=O)c1ccccc1 (stereo not drawn) [2-Ethylhexyl benzoate] the CC50 at 24 h was > 90 µM.
In the case of CCC(=O)OC [Methyl propanoate], the CC50 at 24 h is reported as > 90 µM.
For CCCCCCCCCC(=O)NO [Decanohydroxamic acid], the CC50 at 24 h was > 50 µM.
For COc1ccccc1OCC(O)CN1CCN(CC(=O)Nc2c(C)cccc2C)CC1 (stereo not drawn) [Ranolazine], the CC50 at 24 h was > 50 µM.
In the case of NC(=O)c1ccccc1O [Salicylamide], the CC50 at 24 h is reported as > 90 µM.
Work on CN(C)CC/C=C1\c2ccccc2CSc2ccccc21 [Dothiepin hydrochloride] yielded a CC50 at 24 h of 6.1 µM.
In the case of O=C(O)c1cc(O)c2c(c1)[C@H]([C@H]1c3cc(C(=O)O)cc(O)c3C(=O)c3c(O[C@@H]4O[C@H](CO)[C@@H](O)[C@H](O)[C@H]4O)cccc31)c1cccc(O[C@@H]3O[C@H](CO)[C@@H](O)[C@H](O)[C@H]3O)c1C2=O [Sennoside A], the CC50 at 24 h is reported as > 50 µM.
For CC(=O)Nc1ccc(S(=O)(=O)Nc2ccc([N+](=O)[O-])cc2)cc1 [Sulfanitran], the CC50 at 24 h was > 50 µM.
For NNC(N)=S [Thiosemicarbazide], the CC50 at 24 h was > 100 µM.
In the case of CC(C)OC(=O)OCOP(=O)(CO[C@H](C)Cn1cnc2c(N)ncnc21)OCOC(=O)OC(C)C [Tenofovir disoproxil fumarate], the CC50 at 24 h is reported as > 50 µM.
For ON(Cc1ccccc1)Cc1ccccc1 [N-Benzyl-N-hydroxy-1-phenylmethanamine], the CC50 at 24 h was > 90 µM.
With CCn1c2ccccc2c2cc([N+](=O)[O-])ccc21 [9-Ethyl-3-nitro-9H-carbazole] the CC50 at 24 h was > 90 µM.
For ON=CC=NO [Glyoxime], the CC50 at 24 h was > 90 µM.
With CC(N)Cc1ccc(O)cc1 (stereo not drawn) [Hydroxyamphetamine hydrobromide] the CC50 at 24 h was > 50 µM.
For CCC(C)C(=O)OCCc1ccccc1 (stereo not drawn) [2-Phenylethyl 2-methylbutanoate], the CC50 at 24 h was > 90 µM.
With CC(C)(C)C(=O)OCOC(=O)[C@@H]1N2C(=O)[C@@H](NC(=O)[C@H](N)c3ccccc3)[C@H]2SC1(C)C [Pivampicillin] the CC50 at 24 h was > 20 µM.
For CC(C)CC=O [3-Methylbutanal], the CC50 at 24 h was > 90 µM.
With CC(=O)SCC(Cc1ccccc1)C(=O)NCC(=O)OCc1ccccc1 (stereo not drawn) [Racecadotril] the CC50 at 24 h was > 20 µM.
For CCCCCCCCCCCCCCC(=O)O [Pentadecanoic acid], the CC50 at 24 h was > 90 µM.
In the case of CC1(C)C(/C=C(\Cl)C(F)(F)F)C1C(=O)OC(C#N)c1cccc(Oc2ccccc2)c1 (stereo not drawn) [alpha-Cyhalothrin], the CC50 at 24 h is reported as > 90 µM.

Same assay, conditions: rat, gh3-tre-luc cells, AC50 (uM) modified / 1000, Tox21_110001=Tox21_113042; viability, 1 nM T3 present, 24 h
For O=C(O)Cc1ccccc1 [Phenylacetic acid], the CC50 at 24 h was > 50 µM.

Same assay, conditions: rat, gh3-tre-luc cells, AC50 (uM) modified / 1000, Tox21_110001=Tox21_200533; viability, 1 nM T3 present, 24 h
In the case of O=C(O)Cc1ccccc1 [Phenylacetic acid], the CC50 at 24 h is reported as > 90 µM.

Same assay, conditions: rat, gh3-tre-luc cells, AC50 (uM) modified / 1000, Tox21_110001=Tox21_202343; viability, 1 nM T3 present, 24 h
For CCOP(=S)(OCC)SCCSCC [Disulfoton], the CC50 at 24 h was > 90 µM.

Same assay, conditions: rat, gh3-tre-luc cells, AC50 (uM) modified / 1000, Tox21_110001=Tox21_300861; viability, 1 nM T3 present, 24 h
In the case of CCOP(=S)(OCC)SCCSCC [Disulfoton], the CC50 at 24 h is reported as > 40 µM.
